This is an account of results in the OPERA property sets (Mansouri et al. 2018).

Compound `CCc1cccc(CC)c1` had a logP of 4.57.
To `Cc1cccc(C(C)C)c1` belongs 4.5; to `CCC(C)c1ccccc1` (stereo unspecified), 4.57; to `CCCc1cccc(C)c1`, 4.67.
To `CCCCCCCCCc1ccccc1` belongs 7.11; to `CCCc1ccccc1C`, 4.5; to `CCCc1ccc(C)cc1`, 4.6.
Then `CCc1cccc(C)c1C`, with 4.34; and `CCc1ccc(CC)cc1`, with 4.58; and `CCc1c(C)cccc1C`, with 4.28.
`CCc1cc(C)ccc1C` returned a logP of 4.43.
`CCc1ccc(C)c(C)c1` showed a logP of 4.5.
In turn, `CCc1cc(C)cc(C)c1` came in with a logP of 4.55.
Then `Cc1ccccc1C(C)C`, with 4.38; and `CCc1cccc(C)c1`, with 3.98.
Then `CCc1ccc(C)cc1C`, with 4.47.

A word on the logP: it is the decadic logarithm of the partition coefficient of the neutral form, usually between octanol and water.
